Assay results published in US10144938B2, “Methods of processing aromatic compounds” (WISCONSIN ALUMNI RESEARCH FOUNDATION, priority 2015, dated 2018).

How the values were obtained:
[1] = system: bacterial or yeast ethanologens; conditions: literature reports; cited from earlier work
[2] = system: R. sphaeroides 2.4.1; test: Glucose and xylose consumption in synthetic hydrolysate with individual aromatics added; assay type: cell-based, Rhodobacter sphaeroides; conditions: individual aromatics at concentrations present in SynH2, diluted to 20% strength, FIG. 9
Excerpt: For comparison, glucose and xylose utilization in 20% SynH2^− (no aromatics), as well as in 20% ACSH and 20% AHPCSH are also included.

CC(=O)c1ccc(O)cc1 [4-Hydroxyacetophenone]
Inhibitory to bacterial or yeast ethanologens [1]: inhibitory
Effect on glucose utilization [2]: inhibited glucose utilization

O=C(O)/C=C/c1ccc(O)cc1 [p-Coumaric acid]
Inhibitory to bacterial or yeast ethanologens [1]: inhibitory
Effect on glucose utilization [2]: inhibited glucose utilization

O=Cc1ccc(O)cc1 [4-Hydroxybenzaldehyde]
Inhibitory to bacterial or yeast ethanologens [1]: inhibitory
Effect on glucose utilization [2]: inhibited glucose utilization

COc1cc(C=O)ccc1O [Vanillin]
Inhibitory to bacterial or yeast ethanologens [1]: inhibitory

COc1cc(C(C)=O)ccc1O [Acetovanillone]
Inhibitory to bacterial or yeast ethanologens [1]: inhibitory

O=C(O)c1ccccc1 [Benzoate]
Inhibitory to bacterial or yeast ethanologens [1]: inhibitory
